# Results from patent US9718790B2, “Triazine derivative and pharmaceutical composition having an analgesic activity comprising the same” (SHIONOGI & CO., LTD., priority 2010, dated 2017).
# Target: human P2X3 receptor (Homo sapiens (Human), UniProt P56373)
# Experiment: Evaluation of human P2X3 receptor inhibitory activity (Fluo-3 calcium fluorescence, FDSS 3000, ATP stimulation);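 further: stimulus was 50 nM ATP with fluorescence followed for 3 min, and the response per well was peak post-ATP fluorescence divided by the reading at measurement start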
# Format: cell-based
# Conditions: C6BU-1 cells stably expressing human P2X3 receptor
# Chain of human P2X3 receptor (P56373 whole entry): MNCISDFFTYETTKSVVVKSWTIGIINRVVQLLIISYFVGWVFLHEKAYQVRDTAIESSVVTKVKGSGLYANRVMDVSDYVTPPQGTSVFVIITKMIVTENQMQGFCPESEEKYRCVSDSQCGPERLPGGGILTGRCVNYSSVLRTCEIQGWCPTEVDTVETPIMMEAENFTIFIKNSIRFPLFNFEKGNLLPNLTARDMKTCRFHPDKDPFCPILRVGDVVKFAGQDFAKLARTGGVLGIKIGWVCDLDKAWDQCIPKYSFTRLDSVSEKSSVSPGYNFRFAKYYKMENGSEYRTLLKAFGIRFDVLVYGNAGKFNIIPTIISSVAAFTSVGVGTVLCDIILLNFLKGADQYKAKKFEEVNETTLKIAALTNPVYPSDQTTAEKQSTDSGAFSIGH
row,SMILES,IC50 [nM]
1,CCn1c(=O)[nH]/c(=N\c2ccc(Oc3ccc(C(=O)OC)cc3)cc2)n(Cc2ccc(C)cc2)c1=O [Compound I-2029],4
2,COC(=O)C[C@@H](C)Cn1c(=O)[nH]/c(=N\c2ccc(OC(C)C)c(C)c2)n(Cc2ccc(Cl)cc2)c1=O [Compound I-0761],15
3,COC(=O)c1cc(Oc2ccc(/N=c3\[nH]c(=O)n(CCOC4CCCCO4)c(=O)n3Cc3ccc(Cl)cc3)cc2)no1 (stereo not shown) [Compound I-2113],1
4,CCCc1ccc(/N=c2\[nH]c(=O)n(C[C@H](C)C(=O)OC)c(=O)n2Cc2ccc(C)cc2)cc1C [Compound I-1210],37
5,CC[C@@H](C)Oc1ccc(/N=c2\[nH]c(=O)n(C[C@H](C)C(=O)O)c(=O)n2Cc2ccc(Cl)cc2)cc1 [Compound I-0754],16
6,COC(=O)[C@@H](C)Cn1c(=O)[nH]/c(=N\c2ccc3nc(C)ccc3c2)n(Cc2ccc(C)cc2)c1=O [Compound I-1275],6
7,C[C@@H](Cn1c(=O)[nH]/c(=N\c2ccc(OC3CCC3)cc2)n(Cc2ccc(Cl)cc2)c1=O)C(=O)O [Compound I-1284],15
8,CCc1cc(/N=c2\[nH]c(=O)n(CCC(=O)O)c(=O)n2Cc2ccc(C)cc2)ccc1OC(C)C [Compound I-1199],36
9,COC(=O)C(C)(C)Cn1c(=O)[nH]/c(=N\c2ccc(OC(C)C)c(OC)c2)n(Cc2ccc(Cl)cc2)c1=O [Compound I-1273],7
10,CCn1c(=O)[nH]/c(=N\c2ccc(Oc3cc(C(N)=O)on3)cc2)n(Cc2ccc(Cl)cc2)c1=O [Compound I-2107],7
11,Cc1ccc(Cn2c(=O)n([C@@H](C)[C@@H](C)C(=O)O)c(=O)[nH]/c2=N\c2ccc(OC3CCC3)c(C)c2)cc1 [Compound I-1408],16
12,Cc1ccc(Cn2c(=O)n(C[C@H](C)C(=O)O)c(=O)[nH]/c2=N\c2ccc(OC3CCCC3)cc2)cc1 [Compound I-1189],33
13,CC(C)Oc1ccc(/N=c2\[nH]c(=O)[nH]c(=O)n2Cc2ccc(Cl)cc2)cc1 [Compound I-1981],354
14,CC(C)COc1ccc(/N=c2\[nH]c(=O)n(C[C@H](C)C(=O)O)c(=O)n2Cc2ccc(Cl)cc2)cc1 [Compound I-0750],22
15,O=C(O)CCCn1c(=O)[nH]/c(=N\c2ccc(Oc3ccncc3)cc2)n(Cc2ccc(Cl)cc2)c1=O [Compound I-1259],11
16,CCOc1ccc(/N=c2\[nH]c(=O)n(C[C@H](C)C(=O)OC)c(=O)n2Cc2ccc(Cl)cc2)cc1F [Compound I-0602],20
17,CCn1c(=O)[nH]/c(=N\c2ccc(Oc3ccc(C(=O)OC)o3)cc2)n(Cc2ccc(Cl)cc2)c1=O [Compound I-2150],44
18,NC(=O)Cn1c(=O)[nH]/c(=N\c2ccc(Oc3ccnc(O)c3)cc2)n(Cc2ccc(Cl)cc2)c1=O [Compound I-1977],5
19,Cc1ccc(Cn2c(=O)n([C@@H](C)[C@@H](C)C(=O)O)c(=O)[nH]/c2=N\c2ccc3nc(C)sc3c2)cc1 [Compound I-1470],10
20,Cc1ccc(Cn2c(=O)n(CCC(=O)O)c(=O)[nH]/c2=N\c2ccc(Oc3cccnc3)cc2)cc1 [Compound I-1227],30
21,CCOC(=O)CCCn1c(=O)[nH]/c(=N\c2ccc(O)cc2)n(Cc2ccc(C)cc2)c1=O [Compound I-1239],732
22,CNC(=NC#N)NCCCn1c(=O)[nH]/c(=N\c2ccc(OC(C)C)c(F)c2)n(Cc2ccc(Cl)cc2)c1=O [Compound I-0615],5
23,CCc1nc2ccc(/N=c3\[nH]c(=O)n(CCCCC(=O)OC)c(=O)n3Cc3ccc(C)cc3)cc2s1 [Compound I-2156],2
24,CCn1c(=O)[nH]/c(=N\c2ccc3oc(C)c(CCO)c3c2)n(Cc2ccc(Cl)cc2)c1=O [Compound I-2171],296

# Same assay, conditions: C6BU-1 cells stably expressing human P2X3 receptor, Fluo-3 fluorescence, FDSS 3000
row,SMILES,IC50 [nM]
1,C[C@@H](C(=O)O)[C@H](C)n1c(=O)[nH]/c(=N\c2ccc3c(c2)CCC3=O)n(Cc2ccc(Cl)cc2)c1=O [Compound I-1830],869
2,COC(=O)Cn1c(=O)[nH]/c(=N\c2ccc3nc(C)sc3c2)n(Cc2ccc(Cl)cc2)c1=O [Compound I-1602],5
3,COC(=O)[C@@H](C)Cn1c(=O)[nH]/c(=N\c2ccc(OC(C)C)c(OC)c2)n(Cc2ccc(C)cc2)c1=O [Compound I-1129],11
4,O=C(O)CCn1c(=O)[nH]/c(=N\c2ccc(OCc3ccccn3)cc2)n(Cc2ccc(Cl)cc2)c1=O [Compound I-1628],683
5,COC(=O)[C@@H](C)Cn1c(=O)[nH]/c(=N\c2cccc(Br)c2)n(Cc2ccc(C)cc2)c1=O [Compound I-1077],64
6,"COC(=O)[C@@H](C)Cn1c(=O)[nH]/c(=N\c2ccc(C#CC3CC3)c(C)c2)n(Cc2ccc(Cl)cc2)c1=O [Compound I-1041, (S)-1-(4-chlorobenzyl)-6-(3-mehyl-4-cyclopropylethynylphenylimino)-3-(2-methoxycarbonylpropyl)-1,3,5-triazinane-2,4-dion]",101
7,Cc1ccc(Cn2c(=O)n(C[C@H](C)C(N)=O)c(=O)[nH]/c2=N\c2ccc(CC(C)C)c(Cl)c2)cc1 [Compound I-1616],7
8,CCn1c2ccccc2c2cc(/N=c3\[nH]c(=O)n([C@@H](C)[C@@H](C)C(=O)O)c(=O)n3Cc3ccc(Cl)cc3)ccc21 [Compound I-1815],367
9,CCOc1ccc(/N=c2\[nH]c(=O)n(C[C@@H](C)C(=O)O)c(=O)n2Cc2ccc(C)cc2)cc1Cl [Compound I-1107],43
10,CC(C)Oc1ccc(/N=c2\[nH]c(=O)n([C@@H](C)[C@@H](C)C(=O)O)c(=O)n2Cc2ccc(Cl)cc2)cc1Cl [Compound I-0923],15
11,COC(=O)[C@@H](C)Cn1c(=O)[nH]/c(=N\c2ccc3c(c2)CCCO3)n(Cc2ccc(Cl)cc2)c1=O [Compound I-1102],148
12,C[C@@H](C(=O)O)[C@H](C)n1c(=O)[nH]/c(=N\c2ccc3oc4c(c3c2)CCCC4)n(Cc2ccc(Cl)cc2)c1=O [Compound I-1748],236
13,COC(=O)CCCCn1c(=O)[nH]/c(=N\c2ccc(OC(C)C)c(Cl)c2)n(Cc2ccc(C)cc2)c1=O [Compound I-1873],2
14,CC[C@H](C)Oc1ccc(/N=c2\[nH]c(=O)n(C[C@H](C)C(=O)O)c(=O)n2Cc2ccc(C)cc2)cc1Cl [Compound I-1014],17
15,C/C=C/c1ccc(Cn2c(=O)n(C[C@H](C)C(=O)O)c(=O)[nH]/c2=N\c2ccc(OC(C)C)cc2)cc1 [Compound I-1160],973
16,C[C@@H](C(=O)O)[C@H](C)n1c(=O)[nH]/c(=N\c2ccc3c(c2)CC/C3=N\O)n(Cc2ccc(Cl)cc2)c1=O [Compound I-1777],636
17,CCc1nc2ccc(/N=c3\[nH]c(=O)n(CCC(N)=O)c(=O)n3Cc3ccc(Cl)cc3)cc2s1 [Compound I-1768],6
18,CCC[C@@H](C)Oc1ccc(/N=c2\[nH]c(=O)n(CCC(=O)OCC)c(=O)n2Cc2ccc(C)cc2)cc1 [Compound I-1053],79
19,CCc1nc2ccc(/N=c3\[nH]c(=O)n(CC(=O)NCCO)c(=O)n3Cc3ccc(Cl)cc3)cc2s1 [Compound I-1808],4
20,COC(=O)[C@@H](C)Cn1c(=O)[nH]/c(=N\c2ccc(C=C(C)C)c(F)c2)n(Cc2ccc(C)cc2)c1=O [Compound I-1171],25
21,COC(=O)[C@@H](C)Cn1c(=O)[nH]/c(=N\c2ccc(OC(C)C)c(C#N)c2)n(Cc2ccc(C)cc2)c1=O [Compound I-0951],33

# Same assay, conditions: human P2X3 receptor, Test Example 1
row,SMILES,IC50 [nM]
1,CCn1c(=O)[nH]/c(=N\c2ccc(Oc3ccnc(C(=O)OC)c3)cc2)n(Cc2ccc(F)cc2)c1=O [Compound I-2359],26
2,O=c1[nH]/c(=N\c2ccc(Oc3cncc(F)c3)cc2)n(Cc2ccc(Cl)cc2)c(=O)n1CCO [Compound I-2420],9
3,CCn1c(=O)[nH]/c(=N\c2ccc(Oc3ccnc(C#N)n3)cc2)n(Cc2ccc(Cl)cc2)c1=O [Compound I-2310],5
4,Cc1nsc(Oc2ccc(/N=c3\[nH]c(=O)n(C[C@H](O)CO)c(=O)n3Cc3ccc(F)cc3)cc2)n1 [Compound I-2607],20
5,Cn1c(=O)[nH]/c(=N\c2ccc(Oc3cncc(C(=O)O)n3)cc2)n(Cc2ccc(Cl)cc2)c1=O [Compound I-2476],13
6,O=c1[nH]/c(=N\c2ccc(Oc3nccs3)cc2)n(Cc2ccc(Cl)cc2)c(=O)n1CCO [Compound I-2505],17
7,O=c1[nH]/c(=N\c2ccc(Oc3ncns3)cc2)n(Cc2ccc(Cl)cc2)c(=O)n1CC(CO)CO [Compound I-2521],5
8,Cc1nnc(Oc2ccc(/N=c3\[nH]c(=O)n(C[C@H](O)CO)c(=O)n3Cc3ccc(Cl)cc3)cc2)s1 [Compound I-2511],235
9,CCn1c(=O)[nH]/c(=N\c2ccc(Oc3cccc(C#N)n3)cc2)n(Cc2ccc(Cl)cn2)c1=O [Compound I-2373],33
10,Cc1nsc(Oc2ccc(/N=c3\[nH]c(=O)n(C[C@H](O)CO)c(=O)n3Cc3ccc(Cl)cc3)cc2F)n1 [Compound I-2708],2
11,Cc1ccc(Cn2c(=O)n(CC3(C(=O)O)CC3)c(=O)[nH]/c2=N\c2ccc3nc(C)sc3c2)cc1 [Compound I-1554],14
12,Cc1cc(/N=c2\[nH]c(=O)n(C[C@H](C)C(=O)O)c(=O)n2Cc2ccc(Cl)cc2)cnc1OC1CCC1 [Compound I-1483],87
13,CCn1c(=O)[nH]/c(=N\c2ccc(Oc3ccc(C#N)cc3)nc2)n(Cc2ccc(Cl)cc2)c1=O [Compound I-2613],137
14,CNC(=O)Cn1c(=O)[nH]/c(=N\c2ccc(Oc3ncccn3)cc2)n(Cc2ccc(Cl)cc2)c1=O [Compound I-2687],35
15,CCn1c(=O)[nH]/c(=N\c2ccc(Oc3nnn[nH]3)cc2)n(Cc2ccc(Cl)cc2)c1=O [Compound I-2515],346
16,COc1ccc(Oc2ccc(/N=c3\[nH]c(=O)n(CCC(=O)O)c(=O)n3Cc3ccc(Cl)cc3)cc2)cn1 [Compound I-1533],16
17,CCOC(=O)CCn1c(=O)[nH]/c(=N\c2ccc3nc(C)sc3c2)n(Cc2ccc(C)cc2)c1=O [Compound I-1519],2
18,CC(C)(O)Cn1c(=O)[nH]/c(=N\c2ccc(Oc3ccon3)cc2)n(Cc2ccc(Cl)cc2)c1=O [Compound I-2672],11
19,CCC(=O)Nc1ccc(Oc2ccc(/N=c3\[nH]c(=O)n(CC)c(=O)n3Cc3ccc(Cl)cc3)cc2)cn1 [Compound I-2242],< 4
